Laboratory results published in patent publication US8222244B2, “Staurosporine derivatives as inhibitors of FLT3 receptor tyrosine kinase activity” (Novartis AG, priority 2001, dated 2012).
“Also recorded” adds a separate entry of the source.

Each compound was assayed on human leukemia and lymphoma cell lines that did not have mutant FLT3 receptors (assay: Cytotoxicity against leukemia and lymphoma cell lines without mutant FLT3 receptors). Conditions: at the concentrations required to inhibit the proliferation of FLT3-dependent cell-lines.
Type: cell-based
For `CO[C@@H]1[C@H](N(C)C(=O)c2ccccc2)C[C@H]2O[C@]1(C)n1c3ccccc3c3c4c(c5c6ccccc6n2c5c31)C(=O)NC4` [MIDOSTAURIN, N-[(9S,10R,11R,13R)-2,3,10,11,12,13-hexahydro-10-methoxy-9-methyl-1-oxo-9,13-epoxy-1H,9H-diindolo[1,2,3-gh:3′,2′,1′-Im]pyrrolo[3,4-j][1,7]benzodiazonin-11-yl]-N-methylbenzamide], the cytotoxicity was “not cytotoxic; also recorded: not cytoxic”.

These compounds were tested against T1, human Flt-3 (Homo sapiens, UniProt P36888) (assay: Tyrosine protein kinase assay with purified GST-Flt-3 (33P incorporation)). Conditions: at a 1.0 micromolar concentration.
T1 construct: expresses the amino acid region amino acids 563-993 of the intra-cytoplasmic kinase domains of human Flt-3; made in house; host or cells: Sf9 insect cells (baculovirus, pFbacG01 donor vector)
T1 sequence (P36888 563-993): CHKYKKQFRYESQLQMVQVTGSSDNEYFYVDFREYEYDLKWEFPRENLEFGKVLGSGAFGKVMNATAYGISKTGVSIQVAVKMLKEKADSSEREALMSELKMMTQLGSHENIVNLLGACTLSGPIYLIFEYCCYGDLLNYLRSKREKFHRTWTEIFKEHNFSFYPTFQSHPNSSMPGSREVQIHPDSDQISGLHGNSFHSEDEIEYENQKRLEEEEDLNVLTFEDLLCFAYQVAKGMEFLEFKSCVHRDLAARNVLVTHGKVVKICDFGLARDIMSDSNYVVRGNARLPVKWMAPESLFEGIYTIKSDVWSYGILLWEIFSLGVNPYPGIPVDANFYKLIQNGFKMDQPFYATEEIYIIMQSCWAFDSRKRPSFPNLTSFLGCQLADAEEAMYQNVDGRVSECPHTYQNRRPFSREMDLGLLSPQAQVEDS
Type: biochemical
In short: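 GST-fused Flt-3 cytoplasmic domain, expressed in baculovirus-infected Sf9 cells and purified, phosphorylates substrate with [γ-33P]ATP. Reaction spotted onto PVDF membranes, washed with H3PO4 and ethanol, and incorporated 33P counted by scintillation.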
“(9a,10b,11b,13a)-11-[(N-Acetyl-a-normuramoyl)methylamino]-2,3,10,11,12,13-hexahydro-10-methoxy-9-methyl-9,13-epoxy-1H,9H-diindolo[1,2,3-gh:3′,2′,1′-lm]pyrrolo[3,4-j][1,7]benzodiazonin-1-one [149622-55-9]” was tested, and the “Flt3 Inhibition (percent inhibition of Flt3 kinase activity)” value was 85%.
In the case of `COC1C(=NOC(C)=O)CC2OC1(C)n1c3ccccc3c3c4c(c5c6ccccc6n2c5c31)C(=O)NC4` (stereo not drawn) [187457-78-9, [9S-(9a,10b,13a)]-2,3,9,10,12,13-Hexahydro-10-methoxy-9-methyl-9,13-epoxy-1H,11H-diindolo[1,2,3-gh:3′,2′,1′-lm]pyrrolo[3,4-j][1,7]benzodiazonine-1,11-dione, 11-(O-acetyloxime)], the “Flt3 Inhibition (percent inhibition of Flt3 kinase activity)” value is reported as 77%.
In the case of “(9a,10b,11b,13a)-11-[(N-Acetyl-4,6-di-O-acetyl-a-muramoyl)methylamino]-2,3,10,11,12,13-hexahydro-10-methoxy-9-methyl-9,13-epoxy-1H,9H-diindolo[1,2,3-gh:3′,2′,1′-lm]pyrrolo[3,4-j][1,7]benzodiazonin-1-one [149622-65-1]”, the “Flt3 Inhibition (percent inhibition of Flt3 kinase activity)” value is reported as 74%.
For “(9a,10b,11b,13a)-11-[(N-Acetyl-6-O-acetyl-1-deoxymuramoyl)methylamino]-2,3,10,11,12,13-hexahydro-10-methoxy-9-methyl-, 11-[(N-acetyl-6-O-acetyl-1-deoxymuramoyl)methylamino]-2,3,10,11,12,13-hexahydro-10-methoxy-9-methyl-9,13-epoxy-1H,9H-diindolo[1,2,3-gh:3′,2′,1′-lm]pyrrolo[3,4-j][1,7]benzodiazonin-1-one [149622-68-4]”, the “Flt3 Inhibition (percent inhibition of Flt3 kinase activity)” value was 93%.
`CO[C@@H]1/C(=N/O)C[C@H]2O[C@]1(C)n1c3ccccc3c3c4c(c5c6ccccc6n2c5c31)C(=O)NC4` [126221-76-9, (9S,10R,11Z,13R)-2,3,9,10,12,13-Hexahydro-10-methoxy-9-methyl-9,13-epoxy-1H,11H-diindolo[1,2,3-gh:3′,2′,1′-lm]pyrrolo[3,4-j][1,7]benzodiazonine-1,11-dione, 11-oxime] was tested, and the “Flt3 Inhibition (percent inhibition of Flt3 kinase activity)” value was 83%.
For `COC1C([N+](C)(C)C)CC2OC1(C)n1c3ccccc3c3c4c(c5c6ccccc6n2c5c31)C(=O)NC4.[I-]` (stereo not drawn) [120685-26-9, [9S-(9a,10b,11b,13a)]-2,3,10,11,12,13-Hexahydro-10-methoxy-N,N,N,9-tetramethyl-1-oxo-9,13-epoxy-1H,9H-diindolo[1,2,3-gh:3′,2′,1′-lm]pyrrolo[3,4-j][1,7]benzodiazonin-11-aminium iodide], the “Flt3 Inhibition (percent inhibition of Flt3 kinase activity)” value was 97%.
For “(2,3,10,11,12,13-hexahydro-10-methoxy-9-methyl-1-oxo-9,13-epoxy-1H,9H-diindolo[1,2,3-gh:3′,2′,1′-lm]pyrrolo[3,4-j][1,7]benzodiazonin-11-yl)methyl-carbamic acid, phenylmethyl ester [159404-67-8]”, the “Flt3 Inhibition (percent inhibition of Flt3 kinase activity)” value was 64%.
With “N-[(9S,10R,11R,13R)-2,3,10,11,12,13-Hexahydro-10-methoxy-9-methyl-1-oxo-9,13-epoxy-1H,9H-diindolo[1,2,3-gh:3′,2′,1′-lm]pyrrolo[3,4-j][1,7]benzodiazonin-11-yl]-2-hydroxy-N-methyl-Benzamide [178955-60-7]” the “Flt3 Inhibition (percent inhibition of Flt3 kinase activity)” value was 89%.
For “11-[[N-Acetyl-1-deoxy-4,6-O-(phenylmethylene)muramoyl]methylamino]-2,3,10,11,12,13-hexahydro-10-methoxy-9-methyl-9,13-epoxy-1H,9H-diindolo[1,2,3-gh:3′,2′,1′-lm]pyrrolo[3,4-j][1,7]benzodiazonin-1-one [149622-49-1]”, the “Flt3 Inhibition (percent inhibition of Flt3 kinase activity)” value was 74%.
For `CO[C@@H]1[C@H](N(C)C(=O)CNC(=O)OC(C)(C)C)C[C@H]2O[C@]1(C)n1c3ccccc3c3c4c(c5c6ccccc6n2c5c31)C(=O)NC4` [124078-43-9, [9S-(9a,10b,11b,13a)]-[2-[(2,3,10,11,12,13-Hexahydro-10-methoxy-9-methyl-1-oxo-9,13-epoxy-1H,9H-diindolo[1,2,3-gh:3′,2′,1′-lm]pyrrolo[3,4-j][1,7]benzodiazonin-11-yl)methylamino]-2-oxoethyl]-carbamic acid, 1,1-dimethylethyl ester], the “Flt3 Inhibition (percent inhibition of Flt3 kinase activity)” value was 65%.
In the case of `COC1C(N(C)C(=O)C(C)OC2CCOCC2)CC2OC1(C)n1c3ccccc3c3c4c(c5c6ccccc6n2c5c31)C(=O)NC4` (stereo not drawn) [160251-50-3, [9S-[9a,10b,11b(S*),13a]]-N-(2,3,10,11,12,13-Hexahydro-10-methoxy-9-methyl-1-oxo-9,13-epoxy-1H,9H-diindolo[1,2,3-gh:3′,2′,1′-lm]pyrrolo[3,4-j][1,7]benzodiazonin-11-yl)-N-methyl-2-[(tetrahydro-2H-pyran-4-yl)oxy]-propanamide], the “Flt3 Inhibition (percent inhibition of Flt3 kinase activity)” value is reported as 89%.
In the case of “[9S-(9a,10b,11b,13a)]-N-(2,3,10,11,12,13-Hexahydro-10-methoxy-9-methyl-1-oxo-9,13-epoxy-1H,9H-diindolo[1,2,3-gh:3′,2′,1′-lm]pyrrolo[3,4-j][1,7]benzodiazonin-11-yl)-N-methyl-2-[(tetrahydro-2H-pyran-4-yl)oxy]-acetamide [160251-52-5]”, the “Flt3 Inhibition (percent inhibition of Flt3 kinase activity)” value is reported as 94%.
For “(9a,10b,11b,13a)-11-[[N-Acetyl-1-O-(phenylmethyl)-a-muramoyl]methylamino]-2,3,10,11,12,13-hexahydro-10-methoxy-9-methyl-9,13-epoxy-1H,9H-diindolo[1,2,3-gh:3′,2′,1′-lm]pyrrolo[3,4-j][1,7]benzodiazonin-1-one [149622-39-9]”, the “Flt3 Inhibition (percent inhibition of Flt3 kinase activity)” value was 72%.
In the case of “[9S-(9a,10b,11b,13a)]-[3-[(2,3,10,11,12,13-Hexahydro-10-methoxy-9-methyl-1-oxo-9,13-epoxy-1H,9H-diindolo[1,2,3-gh:3′,2′,1′-lm]pyrrolo[3,4-j][1,7]benzodiazonin-11-yl)methylamino]-3-oxopropyl]-carbamic acid, 1,1-dimethylethyl ester [124078-44-0]”, the “Flt3 Inhibition (percent inhibition of Flt3 kinase activity)” value is reported as 87%.
`CO[C@@H]1[C@H](N(C)C(=O)CCC(=O)[O-])C[C@H]2O[C@]1(C)n1c3ccccc3c3c4c(c5c6ccccc6n2c5c31)C(=O)NC4.[Na+]` [120685-10-1, [9S-(9a,10b,11b,13a)]-4-[(2,3,10,11,12,13-Hexahydro-10-methoxy-9-methyl-1-oxo-9,13-epoxy-1H,9H-diindolo[1,2,3-gh:3′,2′,1′-lm]pyrrolo[3,4-j][1,7]benzodiazonin-11-yl)methylamino]-4-oxo-butanoic acid, sodium salt] was tested, and the “Flt3 Inhibition (percent inhibition of Flt3 kinase activity)” value was 98%.

What follows are compounds tested on Ba/F3-FLT3-ITD cells (assay: not given). Conditions: in 24-72 hours.
Procedure: (§1) To search for FLT3-targeted compounds, the applicant screened the inhibitory effects of several compounds on two different kinds of assays. • Tyrosine protein kinase assays with purified GST-Flt-3 were carried in a final volume of 30 μL containing 200-1800 ng of enzyme protein. The activity was assayed in the presence or absence of inhibitors, by measuring the incorporation of ^33P from [γ^33P] ATP into appropriate substrates. […] Cell lines expressing two different forms of mutated, activated FLT3 are used: Ba/F3-FLT3-ITD cells expressing a FLT3 mutant with an “Internal Tandem Duplication” (ITD) within the juxtamembrane domain of the receptor. Ba/F3-FLT3-D835Y cells expressing an FLT3 receptor containing a mutation converting […] at position 835 to Tyrosine.
(§2) A cell based assay is utilised to identify inhibitors of mutant FLT3 tyrosine kinase receptors.
(§3) The cell lines used for the initial screening are sublines of Ba/F3 cells that are engineered to express mutant or over-express wild-type (non-mutated) FLT3 following infection with a retrovirus expressing appropriate FLT3 cDNAs. The parent cell line, Ba/F3 is dependent on interleukin-3 for proliferation, and when deprived of IL-3, the cells rapidly cease proliferation and die. The retrovirus expresses FLT3 from the retrovirual LTR and the neo gene from an IRES site.
With `CO[C@@H]1[C@H](N(C)C(=O)c2ccccc2)C[C@H]2O[C@]1(C)n1c3ccccc3c3c4c(c5c6ccccc6n2c5c31)C(=O)NC4` [MIDOSTAURIN, N-[(9S,10R,11R,13R)-2,3,10,11,12,13-hexahydro-10-methoxy-9-methyl-1-oxo-9,13-epoxy-1H,9H-diindolo[1,2,3-gh:3′,2′,1′-Im]pyrrolo[3,4-j][1,7]benzodiazonin-11-yl]-N-methylbenzamide] the “G1 cell cycle arrest and apoptosis” value was “induced both G1 cell cycle arrest and apoptosis”.

What follows are compounds tested on Ba/F3-FLT3-D835Y cells (assay: not given). Conditions: in 24-72 hours.
Procedure: as §1, §2, §3
`CO[C@@H]1[C@H](N(C)C(=O)c2ccccc2)C[C@H]2O[C@]1(C)n1c3ccccc3c3c4c(c5c6ccccc6n2c5c31)C(=O)NC4` [MIDOSTAURIN, N-[(9S,10R,11R,13R)-2,3,10,11,12,13-hexahydro-10-methoxy-9-methyl-1-oxo-9,13-epoxy-1H,9H-diindolo[1,2,3-gh:3′,2′,1′-Im]pyrrolo[3,4-j][1,7]benzodiazonin-11-yl]-N-methylbenzamide] was tested, and the “G1 cell cycle arrest and apoptosis” value was “induced both G1 cell cycle arrest and apoptosis”.
